Measured values: patent publication US20220282217A1, “COMPOSITIONS AND METHODS FOR PREPARING T CELL COMPOSITIONS AND USES THEREOF” (priority 2019, published 2022)
Where a SMILES comes first, the peptide text is derived from it.

Biological target: HLA-A02.01 (Homo sapiens, UniProt P04439, D140Y/D185E/D98H/E176V/E277Q/G131W/G231S/I119V/I121R/I166T/I218V/L300P/L318F/N151K/N90K/P208A/P217A/Q86G/Q94H/R138H/R169H/T345S)
Assay: Class I MHC peptide binding affinity (displacement of radiolabeled reference peptide)
Conditions: not given
Procedure: In brief, MHCI complexes were prepared and bound to radiolabeled reference peptides. Peptides were incubated at varying concentrations with these complexes for 2 days, and the amount of remaining radiolabeled peptide bound to […] was measured using size exclusion gel-filtration.

SMILES | Kd [nM]
CC[C@H](C)[C@H](NC(=O)[C@H](CC(C)C)NC(=O)[C@H](CCC(N)=O)NC(=O)[C@@H](NC(=O)[C@@H](NC(=O)[C@@H](N)CO)[C@@H](C)O)C(C)C)C(=O)N[C@@H](CCSC)C(=O)N[C@@H](CCC(N)=O)C(=O)N[C@@H](CC(C)C)C(=O)O (H-STVQLIMQL-OH; N-terminus and C-terminus assumed) | 7260

Same assay, conditions: BTK C481S peptide; HLA Allele A02.01; read-out: Affinity

SMILES | IC50 [nM]
CSCC[C@H](N)C(=O)N[C@@H](C)C(=O)N[C@@H](CC(N)=O)C(=O)NCC(=O)N[C@@H](CO)C(=O)N[C@@H](CC(C)C)C(=O)N[C@@H](CC(C)C)C(=O)N[C@@H](CC(N)=O)C(=O)N[C@@H](Cc1ccc(O)cc1)C(=O)N[C@@H](CC(C)C)C(=O)O | 1010

Same assay, conditions: EGFR T790M peptides; HLA allele A02.01; read-out: Affinity

Kd [nM] | SMILES
5210 | CC[C@H](C)[C@H](NC(=O)[C@H](CC(C)C)NC(=O)[C@@H](N)CCC(N)=O)C(=O)N[C@@H](CCSC)C(=O)N[C@@H](CCC(N)=O)C(=O)N[C@@H](CC(C)C)C(=O)N[C@@H](CCSC)C(=O)N1CCC[C@H]1C(=O)N[C@@H](Cc1ccccc1)C(=O)NCC(=O)O (H-QLIMQLMPFG-OH; N-terminus and C-terminus assumed)

Same assay, conditions: Observed Affinity (IC50; (nM)), allele A02.01

SMILES | IC50 [nM]
CC[C@H](C)[C@H](NC(=O)[C@H](CCCCN)NC(=O)[C@H](Cc1ccc(O)cc1)NC(=O)[C@@H](NC(=O)[C@@H](NC(=O)[C@H](CC(=O)O)NC(=O)[C@H](CO)NC(=O)[C@H](CCSC)NC(=O)[C@@H](NC(=O)[C@@H](N)Cc1ccccc1)C(C)C)[C@@H](C)O)[C@@H](C)O)C(=O)O (H-FVMSDTTYKI-OH; N-terminus and C-terminus assumed) | 62.4
CC[C@H](C)[C@H](NC(=O)[C@H](CC(C)C)NC(=O)[C@H](CCC(N)=O)NC(=O)[C@@H](NC(=O)[C@@H](NC(=O)[C@@H](N)CO)[C@@H](C)O)C(C)C)C(=O)N[C@@H](CCSC)C(=O)N[C@@H](CCC(N)=O)C(=O)N[C@@H](CC(C)C)C(=O)O (H-STVQLIMQL-OH; N-terminus and C-terminus assumed) | 8540
CC[C@H](C)[C@H](NC(=O)[C@@H](NC(=O)[C@@H](NC(=O)[C@@H](N)Cc1ccc(O)cc1)[C@@H](C)CC)[C@@H](C)CC)C(=O)N[C@@H](CCC(=O)O)C(=O)N[C@@H](Cc1ccccc1)C(=O)N[C@@H](CCSC)C(=O)N[C@H](C(=O)N[C@@H](Cc1ccc(O)cc1)C(=O)NCC(=O)O)[C@@H](C)O (H-YIIIEFMTYG-OH; N-terminus and C-terminus assumed) | 186
CC[C@H](C)[C@H](NC(=O)[C@H](CC(N)=O)NC(=O)[C@H](CCSC)NC(=O)[C@@H](N)Cc1c[nH]cn1)C(=O)N[C@@H](C)C(=O)N[C@@H](CC(N)=O)C(=O)N[C@@H](CC(C)C)C(=O)N[C@@H](CC(C)C)C(=O)NCC(=O)N[C@@H](C)C(=O)O (H-HMNIANLLGA-OH; N-terminus and C-terminus assumed) | 430

Same assay, conditions: allele A02.01; read-out: Observed Affinity (IC50; (nM))

IC50 [nM] | SMILES
29.9 | CC(C)C[C@H](NC(=O)[C@H](CCCNC(=N)N)NC(=O)[C@@H](NC(=O)[C@H](CC(C)C)NC(=O)[C@@H](N)CO)C(C)C)C(=O)N[C@@H](CO)C(=O)N[C@@H](CO)C(=O)N[C@@H](CS)C(=O)N[C@H](C(=O)O)C(C)C (H-SLVRLSSCV-OH; N-terminus and C-terminus assumed)
4190 | CC(C)C[C@H](NC(=O)[C@H](CC(C)C)NC(=O)[C@H](CC(C)C)NC(=O)[C@H](CC(=O)O)NC(=O)[C@H](CC(N)=O)NC(=O)[C@H](CC(C)C)NC(=O)[C@@H]1CCCN1C(=O)[C@@H](NC(=O)[C@@H](NC(=O)[C@@H](N)CC(N)=O)C(C)C)C(C)C)C(=O)O (H-NVVPLNDLLL-OH; N-terminus and C-terminus assumed)
6470 | CSCC[C@H](NC(=O)[C@H](CCC(=O)O)NC(=O)[C@H](CC(C)C)NC(=O)[C@H](CC(C)C)NC(=O)[C@H](CC(C)C)NC(=O)[C@H](CC(=O)O)NC(=O)[C@H](CO)NC(=O)[C@H](CC(C)C)NC(=O)[C@@H]1CCCN1)C(=O)N[C@@H](CC(C)C)C(=O)O (H-PLSDLLLEML-OH; N-terminus and C-terminus assumed)
114 | CC[C@H](C)[C@H](NC(=O)[C@H](CO)NC(=O)[C@H](CC(C)C)NC(=O)CN)C(=O)N[C@@H](CO)C(=O)N[C@@H](CS)C(=O)N[C@H](C(=O)N[C@H](C(=O)N[C@@H](CC(C)C)C(=O)O)[C@@H](C)O)[C@@H](C)O (H-GLSISCTTL-OH; N-terminus and C-terminus assumed)
7490 | CC[C@H](C)[C@H](N)C(=O)N[C@H](C(=O)N[C@@H](C)C(=O)N[C@@H](Cc1ccccc1)C(=O)N[C@@H](Cc1ccccc1)C(=O)N[C@@H](Cc1ccccc1)C(=O)N[C@@H](CS)C(=O)N[C@@H](Cc1c[nH]c2ccccc12)C(=O)N[C@H](C(=O)O)[C@@H](C)CC)[C@@H](C)O (H-ITAFFFCWI-OH; N-terminus and C-terminus assumed)
1710 | CSCC[C@H](N)C(=O)N[C@@H](CO)C(=O)N[C@H](C(=O)N[C@@H](CS)C(=O)N[C@@H](Cc1ccccc1)C(=O)N[C@@H](Cc1ccccc1)C(=O)N[C@@H](Cc1ccccc1)C(=O)N[C@@H](Cc1ccccc1)C(=O)N[C@@H](CO)C(=O)N[C@H](C(=O)O)C(C)C)C(C)C (H-MSVCFFFFSV-OH; N-terminus and C-terminus assumed)
45 | CC(C)C[C@H](NC(=O)[C@@H](N)CC(C)C)C(=O)N[C@@H](CCC(N)=O)C(=O)N[C@@H](CCC(=O)O)C(=O)N[C@@H](Cc1ccccc1)C(=O)N[C@@H](CC(=O)O)C(=O)N[C@H](C(=O)N[C@@H](CCC(N)=O)C(=O)N[C@@H](CCC(=O)O)C(=O)N[C@@H](C)C(=O)O)C(C)C (H-LLQEFDVQEA-OH)
670 | CC(C)C[C@H](NC(=O)[C@H](CO)NC(=O)[C@H](CCCNC(=N)N)NC(=O)[C@H](Cc1c[nH]c2ccccc12)NC(=O)[C@H](CCC(N)=O)NC(=O)[C@@H](NC(=O)CNC(=O)[C@H](C)NC(=O)[C@H](CCC(N)=O)NC(=O)[C@H](C)N)C(C)C)C(=O)O (H-AQAGVQWRSL-OH; N-terminus and C-terminus assumed)
61.2 | CC(C)[C@H](NC(=O)[C@H](CO)NC(=O)[C@H](CS)NC(=O)[C@H](CO)NC(=O)[C@H](CCCCN)NC(=O)[C@@H](NC(=O)[C@H](CCC(=O)O)NC(=O)[C@H](Cc1ccccc1)NC(=O)[C@H](Cc1ccccc1)NC(=O)[C@@H](N)Cc1ccccc1)[C@@H](C)O)C(=O)O (H-FFFETKSCSV-OH; N-terminus and C-terminus assumed)

Second part, the molecule before the results:

SMILES | IC50 [nM]
CSCC[C@H](N)C(=O)N[C@@H](C)C(=O)N[C@@H](CC(C)C)C(=O)N[C@@H](CC(N)=O)C(=O)N[C@@H](CO)C(=O)N[C@@H](CCC(=O)O)C(=O)N[C@@H](C)C(=O)N[C@@H](CC(C)C)C(=O)N[C@@H](CO)C(=O)N[C@H](C(=O)O)C(C)C | 129
CC(C)C[C@H](NC(=O)[C@H](CO)NC(=O)[C@H](CC(N)=O)NC(=O)[C@H](CS)NC(=O)[C@H](CCC(=O)O)NC(=O)[C@H](Cc1c[nH]cn1)NC(=O)[C@H](CC(C)C)NC(=O)[C@@H](NC(=O)[C@H](CCC(N)=O)NC(=O)[C@@H](N)CC(C)C)C(C)C)C(=O)O | 4720
CC[C@H](C)[C@H](NC(=O)[C@@H](NC(=O)[C@H](CO)NC(=O)[C@H](Cc1ccccc1)NC(=O)[C@H](Cc1ccccc1)NC(=O)[C@@H](N)Cc1ccccc1)C(C)C)C(=O)N[C@@H](Cc1ccccc1)C(=O)N[C@@H](CO)C(=O)N[C@H](C(=O)O)[C@@H](C)O (H-FFFSVIFST-OH; N-terminus and C-terminus assumed) | 4560
CC[C@H](C)[C@H](NC(=O)[C@H](CC(C)C)NC(=O)[C@@H](N)CCC(N)=O)C(=O)N[C@@H](CCSC)C(=O)N[C@@H](CCC(N)=O)C(=O)N[C@@H](CC(C)C)C(=O)N[C@@H](CCSC)C(=O)N1CCC[C@H]1C(=O)N[C@@H](Cc1ccccc1)C(=O)NCC(=O)O (H-QLIMQLMPFG-OH; N-terminus and C-terminus assumed) | 5930
CC[C@H](C)[C@H](NC(=O)[C@@H]1CCCN1C(=O)[C@H](CCCNC(=N)N)NC(=O)[C@H](CCC(N)=O)NC(=O)[C@H](CC(N)=O)NC(=O)[C@H](CCSC)NC(=O)CNC(=O)CNC(=O)[C@H](CCSC)NC(=O)[C@@H](N)CS)C(=O)O | 3670
CSCC[C@H](NC(=O)[C@H](CCCCN)NC(=O)[C@H](CCCNC(=N)N)NC(=O)[C@H](CC(C)C)NC(=O)[C@H](CC(N)=O)NC(=O)[C@H](CC(C)C)NC(=O)[C@H](CCCNC(=N)N)NC(=O)[C@H](CC(C)C)NC(=O)[C@H](CC(C)C)NC(=O)[C@@H](N)CCSC)C(=O)O | 2510
CSCC[C@H](N)C(=O)N[C@@H](C)C(=O)N[C@@H](CC(N)=O)C(=O)NCC(=O)N[C@@H](CO)C(=O)N[C@@H](CC(C)C)C(=O)N[C@@H](CC(C)C)C(=O)N[C@@H](CC(N)=O)C(=O)N[C@@H](Cc1ccc(O)cc1)C(=O)N[C@@H](CC(C)C)C(=O)O | 1080
CC(C)C[C@H](NC(=O)[C@H](CO)NC(=O)[C@@H](NC(=O)[C@@H](NC(=O)[C@H](CO)NC(=O)[C@H](CO)NC(=O)[C@H](Cc1c[nH]c2ccccc12)NC(=O)[C@H](CCC(N)=O)NC(=O)[C@@H](N)CCCCN)C(C)C)[C@@H](C)O)C(=O)O (H-KQWSSVTSL-OH; N-terminus and C-terminus assumed) | 26.5
CC(C)C[C@H](NC(=O)[C@H](CC(C)C)NC(=O)CNC(=O)[C@H](Cc1ccc(O)cc1)NC(=O)[C@H](CC(C)C)NC(=O)[C@@H]1CCCN1C(=O)[C@@H](NC(=O)[C@@H](NC(=O)[C@@H](N)CC(N)=O)C(C)C)C(C)C)C(=O)O (H-NVVPLYGLL-OH; N-terminus and C-terminus assumed) | 10500
CC(C)C[C@H](NC(=O)[C@@H](N)CC(C)C)C(=O)NCC(=O)N[C@@H](CCCNC(=N)N)C(=O)N[C@@H](CC(N)=O)C(=O)N[C@@H](CO)C(=O)N[C@@H](Cc1ccccc1)C(=O)N[C@@H](CCC(=O)O)C(=O)N[C@H](C(=O)N[C@@H](CS)C(=O)O)C(C)C (H-LLGRNSFEVC-OH; N-terminus and C-terminus assumed) | 2080
CC[C@H](C)[C@H](NC(=O)[C@H](CCSC)NC(=O)[C@@H](NC(=O)CNC(=O)[C@@H](NC(=O)[C@@H](N)CCC(N)=O)[C@@H](C)O)C(C)C)C(=O)N[C@@H](CS)C(=O)N[C@@H](C)C(=O)N[C@@H](Cc1ccc(O)cc1)C(=O)N[C@@H](CC(C)C)C(=O)O (H-QTGVMICAYL-OH; N-terminus and C-terminus assumed) | 9760
CC(C)C[C@H](NC(=O)[C@H](Cc1c[nH]cn1)NC(=O)[C@H](Cc1c[nH]c2ccccc12)NC(=O)[C@H](CC(C)C)NC(=O)[C@@H](N)CCCNC(=N)N)C(=O)N[C@@H](CC(C)C)C(=O)N[C@@H](CC(C)C)C(=O)N[C@@H](CCC(N)=O)C(=O)N[C@H](C(=O)O)C(C)C (H-RLWHLLLQV-OH; N-terminus and C-terminus assumed) | 1.3
CC(C)C[C@H](NC(=O)[C@H](Cc1c[nH]cn1)NC(=O)[C@H](Cc1c[nH]c2ccccc12)NC(=O)[C@H](CC(C)C)NC(=O)[C@@H](N)CCCNC(=N)N)C(=O)N[C@@H](CC(C)C)C(=O)N[C@@H](CC(C)C)C(=O)N[C@@H](CCC(N)=O)C(=O)N[C@H](C(=O)N[C@H](C(=O)O)[C@@H](C)O)C(C)C (H-RLWHLLLQVT-OH; N-terminus and C-terminus assumed) | 50.9
